Our source for the IC50 values is patent US20080242663A1, “NOVEL PYRIMIDINE DERIVATIVES 698” (ASTRAZENECA AB, priority 2007, published 2008).

For the experiment, the target named is T1, recombinant EphB4 (Homo sapiens, UniProt P54760).
T1 construct: amino acids 563-987; Swiss-Prot Acc; No. P54760; purchased ProQinase GmbH 0178-0000-3
T1 sequence (P54760 563-987): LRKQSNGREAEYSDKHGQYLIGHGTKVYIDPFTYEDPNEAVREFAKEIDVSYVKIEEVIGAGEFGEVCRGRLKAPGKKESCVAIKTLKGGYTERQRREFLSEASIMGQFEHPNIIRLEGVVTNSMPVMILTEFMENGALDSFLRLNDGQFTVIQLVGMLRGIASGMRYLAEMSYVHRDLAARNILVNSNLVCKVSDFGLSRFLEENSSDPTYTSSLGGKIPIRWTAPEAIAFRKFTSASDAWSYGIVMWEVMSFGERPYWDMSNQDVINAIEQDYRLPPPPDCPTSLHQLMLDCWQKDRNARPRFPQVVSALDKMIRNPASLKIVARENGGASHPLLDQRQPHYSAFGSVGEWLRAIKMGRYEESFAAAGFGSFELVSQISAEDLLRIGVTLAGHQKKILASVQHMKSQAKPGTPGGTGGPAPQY
Nature of the experiment: In vitro EphB4 enzyme assay (Alphascreen). The format is biochemical. The procedure:
This assay detects inhibitors of EphB4-mediated phosphorylation of a polypeptide substrate using Alphascreen™ luminescence detection technology. Briefly, recombinant EphB4 was incubated with a biotinylated-polypeptide substrate (biotin-poly-GAT) in presence of magnesium-ATP. The reaction was stopped by addition of EDTA, together with streptavidin-coated donor beads which bind the biotin-substrate containing any phosphorylated tyrosine residues. Anti-phosphotyrosine antibodies present on acceptor beads bind to phosphorylated substrate, thus bringing the donor & acceptor beads into close proximity. Subsequent excitation of the donor beads at 680 nm generated singlet oxygen species that interact with a chemiluminescer on the acceptor beads, leading to light emission at 520-620 nm. The signal intensity is directly proportional to the level of substrate phosphorylation and thus inhibition is measured by a decrease in signal.
Assay plates were then incubated at room temperature for 1 hr. […] The plates were sealed under natural lighting conditions, wrapped in aluminium foil and incubated in the dark for a further 20 hrs.
The resulting assay signal was determined on the Perkin Elmer EnVision plate reader. The minimum value was subtracted from all values, and the signal plotted against compound concentration to generate IC50 data.
Background: In Alpha technology, singlet oxygen from a donor bead excites a nearby acceptor bead.
As a reminder, the IC50 is the concentration that gives 50% inhibition. On to `COc1ccc(NC(C)=O)c(N(C)c2ccnc(Nc3cc(N4CCOCC4)cc(N4CCOCC4)c3)n2)c1` [Example 13.1, N-[2-[[2-[(3,5-dimorpholin-4-ylphenyl)amino]pyrimidin-4-yl]-methyl-amino]-4-methoxy-phenyl]acetamide], for which the IC50 stood at 470 nM.
As to `COc1ccc(NC(C)=O)c(N(C)c2ccnc(Nc3cc(N4CCOCC4)cc(S(C)(=O)=O)c3)n2)c1` [Example 13.2, N-[4-methoxy-2-[methyl-[2-[(3-methylsulfonyl-5-morpholin-4-yl-phenyl)amino]pyrimidin-4-yl]amino]phenyl]acetamide], the IC50 was 426 nM.
As for `CN(c1ccnc(Nc2cc(N3CCOCC3)cc(N3CCOCC3)c2)n1)c1cccc(F)c1F` [Example 14, N′-(2,3-difluorophenyl)-N-(3,5-dimorpholin-4-ylphenyl)-N′-methyl-pyrimidine-2,4-diamine], the IC50 is 370 nM.
As to `CN(c1ccnc(Nc2cc(N3CCOCC3)cc(N3CCOCC3)c2)n1)c1ccc(Cl)cc1Cl` [Example 15.1, N′-(2,4-dichlorophenyl)-N-(3,5-dimorpholin-4-ylphenyl)-N′-methyl-pyrimidine-2,4-diamine], the IC50 was determined as 34100 nM.
On to `COc1cc(N(C)c2ccnc(Nc3cc(N4CCOCC4)cc(N4CCOCC4)c3)n2)ccc1C#N` [Example 15.2, 4-[[2-[(3,5-dimorpholin-4-ylphenyl)amino]pyrimidin-4-yl]-methyl-amino]-2-methoxy-benzonitrile], for which the IC50 was 206 nM.
With `COc1ccc(N(C)c2ccnc(Nc3cc(N4CCOCC4)cc(N4CCOCC4)c3)n2)cc1OC` [Example 15.3, N′-(3,4-dimethoxyphenyl)-N-(3,5-dimorpholin-4-ylphenyl)-N′-methyl-pyrimidine-2,4-diamine], the IC50 was 1000 nM.
As for `COc1ccc(OC)c(N(C)c2ccnc(Nc3cc(N4CCOCC4)cc(N4CCOCC4)c3)n2)c1` [Example 15.4, N′-(2,5-dimethoxyphenyl)-N-(3,5-dimorpholin-4-ylphenyl)-N′-methyl-pyrimidine-2,4-diamine], the figure is 680 nM.
For the compound `COc1cc(OC)cc(N(C)c2ccnc(Nc3cc(N4CCOCC4)cc(N4CCOCC4)c3)n2)c1` [Example 15.5, N′-(3,5-dimethoxyphenyl)-N-(3,5-dimorpholin-4-ylphenyl)-N′-methyl-pyrimidine-2,4-diamine], the IC50 is 1120 nM.
As to `CN(c1ccnc(Nc2cc(N3CCOCC3)cc(N3CCOCC3)c2)n1)c1cccc(Cl)c1C#N` [Example 15.6, 2-chloro-6-[[2-[(3,5-dimorpholin-4-ylphenyl)amino]pyrimidin-4-yl]-methyl-amino]benzonitrile], the IC50 was 417 nM.
`CN(c1ccc(F)c(F)c1)c1ccnc(Nc2cc(N3CCOCC3)cc(N3CCOCC3)c2)n1` [Example 15.7, N′-(3,4-difluorophenyl)-N-(3,5-dimorpholin-4-ylphenyl)-N′-methyl-pyrimidine-2,4-diamine]: the IC50 worked out at 707 nM.
As for `CN(c1ccnc(Nc2cc(N3CCOCC3)cc(N3CCOCC3)c2)n1)c1cc(F)ccc1F` [Example 15.8, N′-(2,5-difluorophenyl)-N-(3,5-dimorpholin-4-ylphenyl)-N′-methyl-pyrimidine-2,4-diamine], the figure is 338 nM; as for `CN(c1ccnc(Nc2cc(N3CCOCC3)cc(N3CCOCC3)c2)n1)c1ccc(F)c(F)c1F` [Example 15.9, N-(3,5-dimorpholin-4-ylphenyl)-N′-methyl-N′-(2,3,4-trifluorophenyl)pyrimidine-2,4-diamine], 602 nM; as for `COc1cc(N(C)c2ccnc(Nc3cc(N4CCOCC4)cc(N4CCOCC4)c3)n2)ccc1C` [Example 15.10, N-(3,5-dimorpholin-4-ylphenyl)-N′-(3-methoxy-4-methyl-phenyl)-N′-methyl-pyrimidine-2,4-diamine], 7730 nM.
Regarding `COc1ccc(N(C)c2ccnc(Nc3cc(N4CCOCC4)cc(N4CCOCC4)c3)n2)c(C)c1` [Example 15.11, N-(3,5-dimorpholin-4-ylphenyl)-N′-(4-methoxy-2-methyl-phenyl)-N′-methyl-pyrimidine-2,4-diamine], the IC50 stood at 1320 nM.
As to `COc1cc(C)ccc1N(C)c1ccnc(Nc2cc(N3CCOCC3)cc(N3CCOCC3)c2)n1` [Example 15.12, N-(3,5-dimorpholin-4-ylphenyl)-N′-(2-methoxy-4-methyl-phenyl)-N′-methyl-pyrimidine-2,4-diamine], the half-inhibitory concentration (IC50) was determined as 1400 nM.
As for `COc1ccc(C)cc1N(C)c1ccnc(Nc2cc(N3CCOCC3)cc(N3CCOCC3)c2)n1` [Example 15.13, N-(3,5-dimorpholin-4-ylphenyl)-N′-(2-methoxy-5-methyl-phenyl)-N′-methyl-pyrimidine-2,4-diamine], the figure is 722 nM.
For `COc1ccc(N(C)c2ccnc(Nc3cc(N4CCOCC4)cc(N4CCOCC4)c3)n2)cc1Cl` [Example 15.14, N′-(3-chloro-4-methoxy-phenyl)-N-(3,5-dimorpholin-4-ylphenyl)-N′-methyl-pyrimidine-2,4-diamine], the IC50 stood at 500 nM.
As for `CN(c1ccnc(Nc2cc(N3CCOCC3)cc(N3CCOCC3)c2)n1)c1cccc(Cl)c1F` [Example 15.15, N′-(3-chloro-2-fluoro-phenyl)-N-(3,5-dimorpholin-4-ylphenyl)-N′-methyl-pyrimidine-2,4-diamine], the figure is 696 nM; as for `CN(c1ccc(Cl)c(F)c1)c1ccnc(Nc2cc(N3CCOCC3)cc(N3CCOCC3)c2)n1` [Example 15.16, N′-(4-chloro-3-fluoro-phenyl)-N-(3,5-dimorpholin-4-ylphenyl)-N′-methyl-pyrimidine-2,4-diamine], 634 nM.
As to `CN(c1ccnc(Nc2cc(N3CCOCC3)cc(N3CCOCC3)c2)n1)c1ccc(Cl)cc1F` [Example 15.17, N′-(4-chloro-2-fluoro-phenyl)-N-(3,5-dimorpholin-4-ylphenyl)-N′-methyl-pyrimidine-2,4-diamine], the 50% inhibitory concentration (IC50) was found to be 1150 nM.
Regarding `Cc1ccc(Cl)c(N(C)c2ccnc(Nc3cc(N4CCOCC4)cc(N4CCOCC4)c3)n2)c1` [Example 15.18, N′-(2-chloro-5-methyl-phenyl)-N-(3,5-dimorpholin-4-ylphenyl)-N′-methyl-pyrimidine-2,4-diamine], the IC50 was 1390 nM.
In the case of `Cc1ccc(N(C)c2ccnc(Nc3cc(N4CCOCC4)cc(N4CCOCC4)c3)n2)cc1Cl` [Example 15.19, N′-(3-chloro-4-methyl-phenyl)-N-(3,5-dimorpholin-4-ylphenyl)-N′-methyl-pyrimidine-2,4-diamine], the IC50 turned out to be 1730 nM.
With `Cc1cccc(Cl)c1N(C)c1ccnc(Nc2cc(N3CCOCC3)cc(N3CCOCC3)c2)n1` [Example 15.20, N′-(2-chloro-6-methyl-phenyl)-N-(3,5-dimorpholin-4-ylphenyl)-N′-methyl-pyrimidine-2,4-diamine], the half-maximal inhibitory concentration (IC50) stood at 1750 nM.
As for `CN(c1ccnc(Nc2cc(N3CCOCC3)cc(N3CCOCC3)c2)n1)c1cccc(Cl)c1Cl` [Example 15.21, N′-(2,3-dichlorophenyl)-N-(3,5-dimorpholin-4-ylphenyl)-N′-methyl-pyrimidine-2,4-diamine], the IC50 is 1310 nM.
On to `CN(c1ccc(F)c(Cl)c1)c1ccnc(Nc2cc(N3CCOCC3)cc(N3CCOCC3)c2)n1` [Example 15.22, N′-(4-fluoro-3-chloro-phenyl)-N-(3,5-dimorpholin-4-ylphenyl)-N′-methyl-pyrimidine-2,4-diamine], for which the IC50 turned out to be 316 nM.
`CCOc1cc(Nc2nccc(N(C)c3cc(CO)ccc3C)n2)cc(N2CCOCC2)c1` [Example 16, [3-[[2-[(3-ethoxy-5-morpholin-4-yl-phenyl)amino]pyrimidin-4-yl]-methyl-amino]-4-methyl-phenyl]methanol]: the IC50 is 132 nM.
As to `CCCOc1cc(Nc2nccc(N(C)c3cc(CO)ccc3C)n2)cc(N2CCOCC2)c1` [Example 17.1, [4-methyl-3-[methyl-[2-[(3-morpholin-4-yl-5-propoxy-phenyl)amino]pyrimidin-4-yl]amino]phenyl]methanol], the IC50 was 265 nM.
Consider `Cc1ccc(CO)cc1N(C)c1ccnc(Nc2cc(OC(C)C)cc(N3CCOCC3)c2)n1` [Example 17.2, [4-methyl-3-[methyl-[2-[(3-morpholin-4-yl-5-propan-2-yloxy-phenyl)amino]pyrimidin-4-yl]amino]phenyl]methanol], for which the IC50 is 171 nM.
With `Cc1ccc(CO)cc1N(C)c1ccnc(Nc2cc(OCC(C)C)cc(N3CCOCC3)c2)n1` [Example 17.3, [4-methyl-3-[methyl-[2-[[3-(2-methylpropoxy)-5-morpholin-4-yl-phenyl]amino]pyrimidin-4-yl]amino]phenyl]methanol], the IC50 turned out to be 1910 nM.
In the case of `Cc1ccc(CO)cc1N(C)c1ccnc(Nc2cc(OCC3CC3)cc(N3CCOCC3)c2)n1` [Example 17.4], the IC50 worked out at 1090 nM.
